Data set [1] deals with T1, RNase A (Bos taurus, UniProt P61823).
T1 construct: purchased
T1 sequence (P61823 27-150): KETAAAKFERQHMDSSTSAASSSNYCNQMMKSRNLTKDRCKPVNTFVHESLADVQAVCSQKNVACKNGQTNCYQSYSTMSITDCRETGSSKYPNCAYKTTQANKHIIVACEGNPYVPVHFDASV
In words: Circular dichroism of RNase A secondary structure with inhibitor. Also noted: species or system Bovine. The conditions noted are these: RNase A 30 µM mixed with inhibitor 30 µM, 3 h; native RNase A 22.7%. As for the experimental part: Inhibitors of RNase A are known to perturb the secondary structure of the enzyme upon binding. […] Therefore, the probable changes in the secondary structure of the enzyme by the inhibitors were monitored by observing the CD spectra of RNase A in the absence or presence of compounds U-di-acid (10) and C-di-acid (21) (Figure 5).
Circular Dichroism (CD) was performed in order to monitor the changes in the secondary structure of the enzyme as a result of interaction with the inhibitors. In this method, 200 µL of RNase A (30 µM) were mixed separately with 200 µL of U-di-acid (10) (30 µM) and C-di-acid (21) (30 µM) and incubated for 3 h. From the resulting solutions, an aliquot of 300 µL was used for CD measurements, taking a 1 mm path length quartz cell. The spectra were recorded in the range of 190–240 nm with a scan rate of 50 nm/min. Three scans were accumulated for each spectrum. The secondary structure was determined using an online server, DICHROWEB [46].
(Circular dichroism is the unequal absorption of left and right circularly polarised light.)

The target of data set [2] is T1, RNase A. Put plainly: Comparative agarose gel-based assay of RNA degradation by RNase A. The data set is classed as biochemical, Bovine. The settings on record: inhibitor 0.5 mM, RNase A 1 µM, RNA 10 mg/mL. As for the experimental part:
Qualitative indication of RNase A inhibition by the synthetic inhibitors was obtained from a comparative agarose gel-based assay by monitoring the degradation of RNA by RNase A (Figure 2 and Figure 3). The most intense band observed in lane I in each gel is due to the presence of only RNA. […] These experimental observations reaffirmed our assumption that increasing the acidity of the molecules leads to an increase in the inhibitory property of the inhibitor.
Inhibition of RNase A was assayed qualitatively by the degradation of RNA in an agarose gel. In this method, 20 μL of RNase A (1 μM) was mixed with 20 μL (0.5 mM) of compounds U-ol-ol (5), C-ol-ol (16), U-acid (3), C-acid (14), U-ol-acid (8), C-ol-acid (18), U-di-acid (10), and C-di-acid (21) separately to a final volume of 50 μL and the resulting solutions incubated for 3 h. Twenty-microliter aliquots of the incubated mixtures were then mixed with 20 μL of RNA solution (10.0 mg/mL RNA, freshly dissolved in RNase free water) and incubated for another 30 min. Then 10 μL of sample buffer (containing 10% glycerol and 0.025% bromophenol blue) were added to this mixture and 15 μL from each solution were extracted and loaded onto a 1.1% agarose gel. The gel was run using a 0.04-M Tris-Acetic acid-EDTA (TAE) buffer (pH 8.0). The residual RNA was visualized by ethidium bromide staining under UV light.

Data set [3] has as its target T1, RNase A. In words: Inhibition kinetics with RNase A (UV, 2',3'-cCMP substrate, Lineweaver–Burk plot). The class given is biochemical, Bovine. The settings on record: 0.1-M Mes-NaOH buffer pH 6.0, 0.1 M NaCl, substrate 2',3'-cCMP; mean ± SD; read-out: Inhibition constant Ki. As for the experimental part:
In order to determine the type of inhibition and the inhibition constant (Ki) values, kinetic experiments were performed with compounds U-ol-acid (8), U-di-acid (10), C-ol-acid (18), and C-di-acid (21). The competitive nature of inhibition in all the cases was apparent from the nature of the Lineweaver–Burk plots obtained from the kinetic experiments (Figure 4 and Figure S1 (SI)).
A quantitative account of RNase A inhibition by the individual inhibitors was obtained by a UV spectroscopic method described by Anderson and co-workers. The assay was performed in a 0.1-M Mes-NaOH buffer, pH 6.0 containing 0.1 M NaCl using 2',3'-cCMP as the substrate. The inhibition constants were calculated from initial velocity data using a Lineweaver–Burk plot. The slopes from the Lineweaver–Burk double reciprocal plot were plotted against the corresponding inhibitor concentrations to get inhibition constants (Ki).

For orientation: melting point means the temperature, or range, at which the solid turns liquid. As usually defined, the Ki is the equilibrium dissociation constant of an inhibitor or competing ligand from its target. In turn, `Nc1ccn(CC(=O)N(CC(=O)O)CC(=O)O)c(=O)n1` [C-di-acid (21), {[2-(4-Amino-2-oxo-2H-pyrimidin-1-yl)-acetyl]carboxymethylamino}acetic acid] displayed a melting point of 190 to 193 °C. In addition, the “α-helix content of RNase A upon binding” value at RNase A [1] came to 29.2%. Also, on RNase A [2], the “RNase A inhibition, relative band intensities in agarose gel” value was “relatively more potent inhibitors”. In addition, the inhibition constant (Ki) at RNase A [3] came to 235 ± 9 µM.
`Nc1ccn(CC(=O)NCC(=O)O)c(=O)n1` [C-acid (14), [2-(4-Amino-2-oxo-2H-pyrimidin-1-yl)acetylamino] acetic acid] displayed a melting point of more than 200 °C.
With `Nc1ccn(CC(=O)N(CCO)CC(=O)O)c(=O)n1` [C-ol-acid (18), [[2-(4-Amino-2-oxo-2H-pyrimidin-1-yl)acetyl]-(2-hydroxyethyl)amino] acetic acid], the “RNase A inhibition, relative band intensities in agarose gel” value at RNase A [2] is on record as “relatively more potent inhibitors”. For the same compound, the Ki on RNase A [3] was 356 ± 7 µM.
In turn, `O=C(O)CN(CC(=O)O)C(=O)Cn1ccc(=O)[nH]c1=O` [U-di-acid (10), {Carboxymethyl-[2-(2,4-dioxo-3,4-dihydro-2H-pyrimidin-1-yl)acetyl]amino}acetic acid] gave a melting point of 118 to 120 °C. Moreover, at RNase A [1], the “α-helix content of RNase A upon binding” value is reported as 24.7%. For the same compound, on RNase A [2], the “RNase A inhibition, relative band intensities in agarose gel” value is recorded as “relatively more potent inhibitors”. At RNase A [3], the inhibition constant (Ki) was determined as 301 ± 15 µM.
On to `O=C(O)CN(CCO)C(=O)Cn1ccc(=O)[nH]c1=O` [U-ol-acid (8)], for which the melting point was in the range of 177 to 179 °C. Moreover, the “RNase A inhibition, relative band intensities in agarose gel” value at RNase A [2] was “relatively more potent inhibitors”. The Ki at RNase A [3] was 454 ± 9 µM.

For the origin of these results see paper PMC6272279, “Carboxylated Acyclonucleosides: Synthesis and RNase A Inhibition” (Molecules, 2015).
